This note sets out measurements from PubChem BioAssay AID248 (DTP/NCI, 2004).

Toxic doses and inconclusive results are not listed.

In the experiment the test system is L1210 leukemia ip in BDF1 mice, survival T/C. Nature of the experiment: NCI In Vivo Anticancer Drug Screen. Data for tumor model L1210 Leukemia (intraperitoneal) in B6D2F1 (BDF1) mice. The settings on record: endpoint: mean survival time, higher = longer survival. In short, it runs like this: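 Value reflects the ratio of survival in compound-treated mice to survival in vehicle-treated controls, with both groups carrying the same transplanted tumor.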

[1] abbreviates: dose: 100.0 mg/kg/injection, schedule: Q04DX003 (ip), vehicle: saline with Tween-80.
The mark [2] stands for this setting: dose: 100.0 mg/kg/injection, schedule: Q04DX003 (ip), vehicle: saline.
The mark [3] stands for this setting: dose: 200.0 mg/kg/injection, schedule: Q04DX003 (ip), vehicle: saline.
Where [4] appears, read: dose: 400.0 mg/kg/injection, schedule: Q04DX003 (ip), vehicle: saline.
The mark [5] stands for this setting: dose: 100.0 mg/kg/injection, schedule: Q01DX001 (ip), vehicle: saline with Tween-80.
Setting [6] is: dose: 100.0 mg/kg/injection, schedule: Q01DX009 (ip), vehicle: saline with Tween-80.
The mark [7] stands for this setting: dose: 200.0 mg/kg/injection, schedule: Q01DX009 (ip), vehicle: saline with Tween-80.
The mark [8] stands for this setting: dose: 400.0 mg/kg/injection, schedule: Q01DX009 (ip), vehicle: saline with Tween-80.

As for `CC(=O)/C=C(\C)OC1CCCCC1`, the T/C by setting is: under setting [1], 98 % of control; (dose: 200.0 mg/kg/injection, schedule: Q04DX003 (ip), vehicle: saline with Tween-80) 95 % of control; (dose: 400.0 mg/kg/injection, schedule: Q04DX003 (ip), vehicle: saline with Tween-80) 91 % of control.

In the case of `COC(=O)c1c(O)cc(OC)cc1OC`, the T/C by setting is: (dose: 100.0 mg/kg/injection, schedule: Q01DX009 (ip), vehicle: other) 108 % of control; under setting [2], 95 % of control; (dose: 200.0 mg/kg/injection, schedule: Q01DX009 (ip), vehicle: other) 108 % of control; under setting [3], 97 % of control; (dose: 400.0 mg/kg/injection, schedule: Q01DX009 (ip), vehicle: other) 108 % of control; under setting [4], 111 % of control.

Take `O=C(O)COc1cc(F)c(Cl)cc1Cl`: the T/C by setting is: (dose: 100.0 mg/kg/injection, schedule: Q01DX009 (ip), vehicle: Klucel (hydroxypropylcellulose) (HPC)) 100 % of control; (dose: 200.0 mg/kg/injection, schedule: Q01DX009 (ip), vehicle: Klucel (hydroxypropylcellulose) (HPC)) 90 % of control.

On to `[N-]=[N+]=NCc1nnc2ncnc(N)c2n1`, for which the T/C (dose: 25.0 mg/kg/injection, schedule: Q01DX009 (ip), vehicle: saline with Tween-80) was 88 % of control; the T/C (dose: 25.0 mg/kg/injection, schedule: Q04DX003 (ip), vehicle: saline with Tween-80) is 94 % of control; the T/C (dose: 50.0 mg/kg/injection, schedule: Q04DX003 (ip), vehicle: saline with Tween-80) is 105 % of control; the T/C under setting [5] is 95 % of control; the T/C under setting [1] is 102 % of control.

For `COC1OC(CO)C(O)C(OC)C1OC` (stereo not given), the T/C runs as follows: under setting [2], 93 % of control; under setting [3], 103 % of control; under setting [4], 106 % of control.

On to `CC(=O)OCC1OC(N2C(=O)/C(=C/c3cccs3)SC2=S)C(OC(C)=O)C(OC(C)=O)C1OC(C)=O` (stereo not given), for which the T/C runs as follows: (dose: 25.0 mg/kg/injection, schedule: Q01DX005 (ip), vehicle: other) 96 % of control; (dose: 50.0 mg/kg/injection, schedule: Q01DX005 (ip), vehicle: other) 100 % of control; (dose: 100.0 mg/kg/injection, schedule: Q01DX005 (ip), vehicle: other) 97 % of control; (dose: 200.0 mg/kg/injection, schedule: Q01DX005 (ip), vehicle: other) 88 % of control.

Turning to `CSc1cc(N)cc(C(=O)O)c1O`, the T/C is, setting by setting: under setting [6], 92 % of control; under setting [7], 89 % of control; under setting [8], 88 % of control.

Take `COC1OC(COC(c2ccccc2)(c2ccccc2)c2ccccc2)C(OS(=O)(=O)c2ccc(C)cc2)C(OC(=O)c2ccccc2)C1OC(=O)c1ccccc1` (stereo not given): the T/C (dose: 100.0 mg/kg/injection, schedule: Q04DX002 (ip), vehicle: saline with Tween-80) was 114 % of control; the T/C (dose: 200.0 mg/kg/injection, schedule: Q04DX002 (ip), vehicle: saline with Tween-80) was 97 % of control; the T/C (dose: 400.0 mg/kg/injection, schedule: Q04DX002 (ip), vehicle: saline with Tween-80) is 90 % of control.

Turning to `O=P(N1CCOCC1)(N1CC1)N1CC1`, the T/C by setting is: (dose: 2.3 mg/kg/injection, schedule: Q01DX015 (ip), vehicle: saline) 103 % of control; (dose: 3.5 mg/kg/injection, schedule: Q01DX015 (ip), vehicle: saline) 108 % of control; (dose: 5.3 mg/kg/injection, schedule: Q01DX015 (ip), vehicle: saline) 114 % of control; (dose: 6.2 mg/kg/injection, schedule: Q01DX001 (ip), vehicle: saline) 105 % of control; (dose: 9.3 mg/kg/injection, schedule: Q01DX001 (ip), vehicle: saline) 107 % of control; (dose: 12.5 mg/kg/injection, schedule: Q01DX009 (ip), vehicle: saline) 196 % of control. The T/C is, setting by setting: (dose: 14.0 mg/kg/injection, schedule: Q01DX001 (ip), vehicle: saline) 112 % of control; (dose: 14.0 mg/kg/injection, schedule: Q01DX015 (ip), vehicle: saline) 210 % of control; (dose: 23.0 mg/kg/injection, schedule: Q01DX015 (ip), vehicle: saline) 246 % of control; (dose: 25.0 mg/kg/injection, schedule: Q01DX009 (ip), vehicle: saline) 116 % of control; (dose: 33.0 mg/kg/injection, schedule: Q01DX001 (ip), vehicle: saline) 157 % of control; (dose: 38.0 mg/kg/injection, schedule: Q01DX015 (ip), vehicle: saline) 104 % of control.

With `CC(C)(C(=Nc1ccccc1)N1CCCCC1)c1ccccc1`, the T/C was 97 % of control (dose: 75.0 mg/kg/injection, schedule: Q01DX001 (ip), vehicle: saline); 94 % of control (dose: 150.0 mg/kg/injection, schedule: Q01DX001 (ip), vehicle: saline); 96 % of control (dose: 300.0 mg/kg/injection, schedule: Q01DX001 (ip), vehicle: saline).

On to `COC(=O)c1ccc(-c2c3ccc(=O)cc-3oc3cc(O)ccc23)c(C(=O)OC)c1`, for which the T/C is 102 % of control (dose: 50.0 mg/kg/injection, schedule: Q04DX003 (ip), vehicle: gum acacia); 98 % of control (dose: 100.0 mg/kg/injection, schedule: Q04DX003 (ip), vehicle: gum acacia); 102 % of control (dose: 200.0 mg/kg/injection, schedule: Q04DX003 (ip), vehicle: gum acacia); 95 % of control (dose: 400.0 mg/kg/injection, schedule: Q04DX003 (ip), vehicle: gum acacia).

For `N=C(N)c1ccc(OCCCCOc2ccc(NC(=O)Nc3ccc(S(=O)(=O)F)cc3Cl)cc2)cc1`, the T/C is 91 % of control under setting [5] and 90 % of control (dose: 200.0 mg/kg/injection, schedule: Q01DX001 (ip), vehicle: saline with Tween-80).

In the case of `CCCCCCCCCCCCCCCCCC(=O)N/N=C/CCc1ccccc1`, the T/C under setting [6] is 87 % of control.

For the compound `O=C(Nc1ccc(Cl)cc1Cl)Nc1cc(C(F)(F)F)ccc1Cl`, the T/C reads like this: (dose: 100.0 mg/kg/injection, schedule: Q01DX009 (ip), vehicle: saline) 98 % of control; (dose: 200.0 mg/kg/injection, schedule: Q01DX009 (ip), vehicle: saline) 95 % of control; (dose: 400.0 mg/kg/injection, schedule: Q01DX009 (ip), vehicle: saline) 92 % of control.

With `CCOc1ccc(/C=C2\N=C(c3cc(OC)c(OC)c(OC)c3)OC2=O)cc1`, the T/C under setting [6] was 102 % of control; the T/C (dose: 100.0 mg/kg/injection, schedule: Q04DX002 (ip), vehicle: Klucel (hydroxypropylcellulose) (HPC)) was 96 % of control; the T/C under setting [7] is 123 % of control; the T/C (dose: 200.0 mg/kg/injection, schedule: Q04DX002 (ip), vehicle: Klucel (hydroxypropylcellulose) (HPC)) was 86 % of control; the T/C under setting [8] is 108 % of control; the T/C (dose: 400.0 mg/kg/injection, schedule: Q04DX002 (ip), vehicle: Klucel (hydroxypropylcellulose) (HPC)) was 96 % of control.

Take `Oc1ccccc1C=NCCCN1CC1.[Ni+2].[O-]c1ccccc1C=NCCCN1CC1`: the T/C was 114 % of control (dose: 100.0 mg/kg/injection, schedule: Q01DX001 (ip), vehicle: Klucel (hydroxypropylcellulose) (HPC)); 87 % of control (dose: 200.0 mg/kg/injection, schedule: Q01DX001 (ip), vehicle: Klucel (hydroxypropylcellulose) (HPC)); 104 % of control (dose: 400.0 mg/kg/injection, schedule: Q01DX001 (ip), vehicle: Klucel (hydroxypropylcellulose) (HPC)).

For the compound `Cc1ccc(NCC(O)CN2CCOCC2)cc1` (stereo not given), the T/C reads like this: (dose: 3.0 mg/kg/injection, schedule: Q04DX003 (ip), vehicle: Klucel (hydroxypropylcellulose) (HPC)) 107 % of control; (dose: 6.0 mg/kg/injection, schedule: Q01DX009 (ip), vehicle: Klucel (hydroxypropylcellulose) (HPC)) 101 % of control; (dose: 6.0 mg/kg/injection, schedule: Q04DX003 (ip), vehicle: Klucel (hydroxypropylcellulose) (HPC)) 100 % of control; (dose: 12.0 mg/kg/injection, schedule: Q01DX009 (ip), vehicle: Klucel (hydroxypropylcellulose) (HPC)) 93 % of control; (dose: 12.0 mg/kg/injection, schedule: Q04DX003 (ip), vehicle: Klucel (hydroxypropylcellulose) (HPC)) 103 % of control; (dose: 24.0 mg/kg/injection, schedule: Q01DX009 (ip), vehicle: Klucel (hydroxypropylcellulose) (HPC)) 106 % of control. Further, under “dose: 100.0 mg/kg/injection, schedule: Q01DX001 (ip), vehicle: other”, the T/C was 101 % of control.
